Results as given in publication PMC11396667, “Design, Synthesis, and Anticancer and Antibacterial Activities of Quinoline-5-Sulfonamides” (Molecules, 2024).
In brackets after ≈: the same amount, converted by molar mass.

system: methicillin-resistant S. aureus SA 3202; assay: MBC, agar aliquot subculture method, MRSA1; assay type: cell-based; details: Staphylococcus aureus; 99.9% decrease in CFU, 24 h, 37 °C
Source text: (§1) The activities of the individual derivatives were expressed as minimum inhibitory concentrations (MICs) and minimum bactericidal concentrations (MBCs) and are shown in Table 3 together with the values of the antibiotics used as standards for comparison. […] MBC values of bactericidal compounds are indicated in bold in Table 3.
(§2) For the above-mentioned strains/isolates, the agar aliquot subculture method was used as a test for bactericidal agents. After the MIC value determination, the inoculum was transferred to CaMH (Oxoid) for staphylococci, and BHI (Oxoid) for enterococci medium using a multipoint inoculator. The plates were incubated in a thermostat at 37 °C for 24 h. The lowest concentration of test compound at which ≤5 colonies were obtained was then evaluated as MBC, corresponding to a 99.9% decrease in CFU relative to the original inoculum.

`C#CCOc1ccc(NS(=O)(=O)c2ccc(O)c3ncccc23)cc1` [3d, 8-Hydroxy-N-[4-(prop-2-yn-1-yloxy)phenyl]quinoline-5-sulfonamide] was tested. Which MBC did it give?
The MBC was 45.2 µM (≈ 16 µg/mL).

For `C#CCN(C)S(=O)(=O)c1ccc(O)c2ncccc12` [3c, 8-Hydroxy-N-methyl-N-(prop-2-yn-1-yl)quinoline-5-sulfonamide], which MBC is on record?
The MBC was 29 µM (≈ 8.01 µg/mL).

With `C#CCOc1cccc(NS(=O)(=O)c2ccc(O)c3ncccc23)c1` [3e, 8-Hydroxy-N-[3-(prop-2-yn-1-yloxy)phenyl]quinoline-5-sulfonamide] as the molecule, how does the MBC read?
Its MBC is 90.4 µM (≈ 32 µg/mL).

system: methicillin-resistant S. aureus SA 630; assay: MIC, microtitration broth method, MRSA2; assay type: cell-based; details: Staphylococcus aureus; 24 h, 37 °C, CaMH broth
Source text: (§3) Since there is a general decrease in immunity during the treatment of oncological patients, i.e., patients are more susceptible to infectious diseases, it is advantageous if anticancer agents show antimicrobial properties at the same time. Therefore, the effects of the compounds were also investigated against Gram-positive bacteria. For this purpose, the susceptible collection strains of aerobic Staphylococcus aureus ATCC 29213 and facultatively aerobic Enterococcus faecalis ATCC 29212 and resistant clinical isolates of methicillin-resistant S. aureus (MRSA) SA 3202, SA 630 carrying the mecA gene, and vancomycin-resistant isolates of E. faecalis (VRE) 342B, 368, and 725B carrying the vanA gene were selected. Thus, the selection of the studied bacterial strains was adopted following the CLSI ([…]) international reference methodologies.
(§4) The in vitro antibacterial activity of the synthesized compounds was evaluated against representatives of multidrug-resistant bacteria, […] clinical isolates of methicillin-resistant S. aureus: clinical isolates of human origin, MRSA SA 3202, and MRSA SA 630 (National Institute of Public Health, Prague, Czech Republic), carrying the mecA gene. These two clinical isolates were classified as vancomycin-susceptible (but with a higher MIC of vancomycin equal to 2 μg/mL (VA2-MRSA). Vancomycin- and methicillin-susceptible S. aureus ATCC 29213 and vancomycin-susceptible Enterococcus faecalis ATCC 29212, obtained from the American Type Culture Collection, were used as the reference and quality control strains. Three vanA gene-carrying vancomycin-resistant isolates of E. faecalis (VRE 342B, VRE 368, VRE 725B) (Department of Infectious Diseases and Microbiology, Faculty of Veterinary Medicine, University of Veterinary Sciences Brno, Czech Republic) were provided by Oravcova et al..
(§5) The minimum inhibitory concentrations (MICs) were evaluated by the microtitration broth method according to the CLSI, with some modifications. The compounds were dissolved in DMSO (Sigma, St. Louis, MO, USA) to obtain a concentration of […] and diluted in a microtitration plate in an appropriate medium, i.e., Cation-Adjusted Mueller–Hinton Broth (CaMH, Oxoid, Basingstoke, UK) for staphylococci, and Brain Heart Infusion Broth (BHI, Oxoid) for enterococci to reach the final concentration of 256–0.125 µg/mL. Microtiter plates were inoculated with test microorganisms so that the final concentration of bacterial cells was 10^5. Ampicillin, oxacillin, and ciprofloxacin (Sigma) were used as reference drugs. A drug-free control and a sterility control were included. The plates were incubated for 24 h at 37 °C for staphylococci and enterococci. […] The experiments were repeated three times.

With `C#CCOc1ccc(NS(=O)(=O)c2ccc(O)c3ncccc23)cc1` [3d, 8-Hydroxy-N-[4-(prop-2-yn-1-yloxy)phenyl]quinoline-5-sulfonamide] as the molecule, how does the MIC read?
The MIC was 90.4 µM (≈ 32 µg/mL).

Which MIC does the source give for `C#CCN(C)S(=O)(=O)c1ccc(O)c2ncccc12` [3c, 8-Hydroxy-N-methyl-N-(prop-2-yn-1-yl)quinoline-5-sulfonamide] here?
Its MIC is 29 µM (≈ 8.01 µg/mL).

How did the MIC turn out when `C#CCOc1cccc(NS(=O)(=O)c2ccc(O)c3ncccc23)c1` [3e, 8-Hydroxy-N-[3-(prop-2-yn-1-yloxy)phenyl]quinoline-5-sulfonamide] was run?
The MIC was 90.4 µM (≈ 32 µg/mL).

system: HFF-1 (normal human dermal fibroblasts); assay: WST-1 cell viability assay, normal HFF-1; assay type: cell-based; details: HFF-1, WST-1, 72 h exposure, ± SD, n = 6
Method: (§6) The synthesized compounds were tested using three cancer cell lines—human amelanotic melanoma (C-32), human breast adenocarcinoma (MDA-MB-231), and human lung adenocarcinoma (A549)—and, for comparison, normal human dermal fibroblasts (HFF-1). The WST-1 (water-soluble tetrazole salt) assay was used to evaluate the effect of the synthesized compounds on the viability of cultured cells.
(§7) Compounds were evaluated for their antiproliferative activity using three cultured cell lines: C-32 (human amelanotic melanoma, ATCC, Manassas, VA, USA), A549 (human lung adenocarcinoma, ATCC, Manassas, VA, USA), MDA-MB-231 (human breast adenocarcinoma derived from metastatic site: pleural effusion, ATCC, Manassas, VA, USA), together with HFF-1 (normal human dermal fibroblasts, ATCC, Manassas, VA, USA). The cultured cells were kept at 37 °C and 5% CO2.
(§8) Cells were seeded in 96-well plates at 5000/well in 100 μL of medium. After 24 h of incubation, the medium was replaced with a new one with the addition of the test substance. After 72 h, the following tests were performed: with crystal violet (determination of the number of adherent cells in the culture), the WST-1 test (determination of the relative number of living cells and their metabolic activity), and the LDH test (determination of the relative number of dead cells in cultures—cytotoxicity of the tested substance).
(§9) WST-1 test: The WST-1 test (Roche Diagnostics, Mannheim, Germany) allows one to determine the relative number of cells in cultures. Absorbance is directly proportional to the number of cells and their metabolic activity. The absorbance measurement is performed at λ = 450 nm (reference wave 600 nm).

`C#CCOc1ccc(NS(=O)(=O)c2ccc(O)c3ncccc23)cc1` [3d, 8-Hydroxy-N-[4-(prop-2-yn-1-yloxy)phenyl]quinoline-5-sulfonamide] was tested. Which IC50 did it give?
Its IC50 is greater than 100 µM.

Which IC50 does the source give for `C#CCN(C)S(=O)(=O)c1ccc(O)c2ncccc12` [3c, 8-Hydroxy-N-methyl-N-(prop-2-yn-1-yl)quinoline-5-sulfonamide] here?
Its IC50 is greater than 100 µM.

Which IC50 does the source give for `C#CCOc1cccc(NS(=O)(=O)c2ccc(O)c3ncccc23)c1` [3e, 8-Hydroxy-N-[3-(prop-2-yn-1-yloxy)phenyl]quinoline-5-sulfonamide] here?
Its IC50 is greater than 100 µM.

system: methicillin-resistant S. aureus SA 630; assay: MBC, agar aliquot subculture method, MRSA2; assay type: cell-based; details: Staphylococcus aureus; 99.9% decrease in CFU, 24 h, 37 °C
Source text: as §1, §2

With `C#CCOc1ccc(NS(=O)(=O)c2ccc(O)c3ncccc23)cc1` [3d, 8-Hydroxy-N-[4-(prop-2-yn-1-yloxy)phenyl]quinoline-5-sulfonamide] as the molecule, how does the MBC read?
The MBC was 90.4 µM (≈ 32 µg/mL).

How did the MBC turn out when `C#CCN(C)S(=O)(=O)c1ccc(O)c2ncccc12` [3c, 8-Hydroxy-N-methyl-N-(prop-2-yn-1-yl)quinoline-5-sulfonamide] was run?
The MBC was 29 µM (≈ 8.01 µg/mL).

How did the MBC turn out when `C#CCOc1cccc(NS(=O)(=O)c2ccc(O)c3ncccc23)c1` [3e, 8-Hydroxy-N-[3-(prop-2-yn-1-yloxy)phenyl]quinoline-5-sulfonamide] was run?
The MBC was 90.4 µM (≈ 32 µg/mL).

system: vancomycin-resistant E. faecalis VRE 725B; assay: MIC, microtitration broth method, VRE3; assay type: cell-based; details: Enterococcus faecalis, 24 h, 37 °C, BHI broth
Source text: as §3, §4, §5

`C#CCOc1ccc(NS(=O)(=O)c2ccc(O)c3ncccc23)cc1` [3d, 8-Hydroxy-N-[4-(prop-2-yn-1-yloxy)phenyl]quinoline-5-sulfonamide] was tested. Which MIC did it give?
The MIC was 362 µM (≈ 128 µg/mL).

Which MIC does the source give for `C#CCN(C)S(=O)(=O)c1ccc(O)c2ncccc12` [3c, 8-Hydroxy-N-methyl-N-(prop-2-yn-1-yl)quinoline-5-sulfonamide] here?
Its MIC is 464 µM (≈ 128 µg/mL).

With `C#CCOc1cccc(NS(=O)(=O)c2ccc(O)c3ncccc23)c1` [3e, 8-Hydroxy-N-[3-(prop-2-yn-1-yloxy)phenyl]quinoline-5-sulfonamide] as the molecule, how does the MIC read?
Its MIC is 362 µM (≈ 128 µg/mL).

system: MDA-MB-231 (human breast adenocarcinoma) cells; assay: WST-1 cell viability assay, MDA-MB-231; assay type: cell-based; details: Homo sapiens, MDA-MB-231; WST-1, 72 h exposure, ± SD, n = 6
Method: as §6, §7, §8, §9

Which IC50 does the source give for `C#CCOc1ccc(NS(=O)(=O)c2ccc(O)c3ncccc23)cc1` [3d, 8-Hydroxy-N-[4-(prop-2-yn-1-yloxy)phenyl]quinoline-5-sulfonamide] here?
Its IC50 is 45.3 ± 5.4 µM.

How did the IC50 turn out when `C#CCN(C)S(=O)(=O)c1ccc(O)c2ncccc12` [3c, 8-Hydroxy-N-methyl-N-(prop-2-yn-1-yl)quinoline-5-sulfonamide] was run?
Its IC50 is 2.2 ± 0.1 µM.

`C#CCOc1cccc(NS(=O)(=O)c2ccc(O)c3ncccc23)c1` [3e, 8-Hydroxy-N-[3-(prop-2-yn-1-yloxy)phenyl]quinoline-5-sulfonamide] was tested. Which IC50 did it give?
The IC50 was 15.2 ± 0.8 µM.

system: Staphylococcus aureus ATCC 29213; assay: MIC, microtitration broth method, SA; assay type: cell-based; details: ATCC29213, 24 h, 37 °C, CaMH broth
Source text: as §3, §4, §5

For `C#CCOc1ccc(NS(=O)(=O)c2ccc(O)c3ncccc23)cc1` [3d, 8-Hydroxy-N-[4-(prop-2-yn-1-yloxy)phenyl]quinoline-5-sulfonamide], which MIC is on record?
The MIC was 45.2 µM (≈ 16 µg/mL).

Which MIC does the source give for `C#CCN(C)S(=O)(=O)c1ccc(O)c2ncccc12` [3c, 8-Hydroxy-N-methyl-N-(prop-2-yn-1-yl)quinoline-5-sulfonamide] here?
The MIC was 29 µM (≈ 8.01 µg/mL).

How did the MIC turn out when `C#CCOc1cccc(NS(=O)(=O)c2ccc(O)c3ncccc23)c1` [3e, 8-Hydroxy-N-[3-(prop-2-yn-1-yloxy)phenyl]quinoline-5-sulfonamide] was run?
Its MIC is 45.2 µM (≈ 16 µg/mL).

system: vancomycin-resistant E. faecalis VRE 368; assay: MIC, microtitration broth method, VRE2; assay type: cell-based; details: Enterococcus faecalis, 24 h, 37 °C, BHI broth
Source text: as §3, §4, §5

With `C#CCOc1ccc(NS(=O)(=O)c2ccc(O)c3ncccc23)cc1` [3d, 8-Hydroxy-N-[4-(prop-2-yn-1-yloxy)phenyl]quinoline-5-sulfonamide] as the molecule, how does the MIC read?
The MIC was 362 µM (≈ 128 µg/mL).

With `C#CCN(C)S(=O)(=O)c1ccc(O)c2ncccc12` [3c, 8-Hydroxy-N-methyl-N-(prop-2-yn-1-yl)quinoline-5-sulfonamide] as the molecule, how does the MIC read?
Its MIC is 464 µM (≈ 128 µg/mL).

`C#CCOc1cccc(NS(=O)(=O)c2ccc(O)c3ncccc23)c1` [3e, 8-Hydroxy-N-[3-(prop-2-yn-1-yloxy)phenyl]quinoline-5-sulfonamide] was tested. Which MIC did it give?
Its MIC is 362 µM (≈ 128 µg/mL).

system: Enterococcus faecalis ATCC 29212; assay: MBC, agar aliquot subculture method, EF; assay type: cell-based; details: ATCC29212, 99.9% decrease in CFU, 24 h, 37 °C
Source text: as §1, §2

`C#CCOc1ccc(NS(=O)(=O)c2ccc(O)c3ncccc23)cc1` [3d, 8-Hydroxy-N-[4-(prop-2-yn-1-yloxy)phenyl]quinoline-5-sulfonamide] was tested. Which MBC did it give?
Its MBC is 362 µM (≈ 128 µg/mL).

`C#CCN(C)S(=O)(=O)c1ccc(O)c2ncccc12` [3c, 8-Hydroxy-N-methyl-N-(prop-2-yn-1-yl)quinoline-5-sulfonamide] was tested. Which MBC did it give?
The MBC was greater than 464 µM.

Which MBC does the source give for `C#CCOc1cccc(NS(=O)(=O)c2ccc(O)c3ncccc23)c1` [3e, 8-Hydroxy-N-[3-(prop-2-yn-1-yloxy)phenyl]quinoline-5-sulfonamide] here?
The MBC was 362 µM (≈ 128 µg/mL).

system: A549 (human lung adenocarcinoma) cells; assay: WST-1 cell viability assay, A549; assay type: cell-based; details: Homo sapiens, A549; WST-1, 72 h exposure, ± SD, n = 6
Method: as §6, §7, §8, §9

For `C#CCOc1ccc(NS(=O)(=O)c2ccc(O)c3ncccc23)cc1` [3d, 8-Hydroxy-N-[4-(prop-2-yn-1-yloxy)phenyl]quinoline-5-sulfonamide], which IC50 is on record?
Its IC50 is 12.9 ± 1.1 µM.

With `C#CCN(C)S(=O)(=O)c1ccc(O)c2ncccc12` [3c, 8-Hydroxy-N-methyl-N-(prop-2-yn-1-yl)quinoline-5-sulfonamide] as the molecule, how does the IC50 read?
The IC50 was 13.9 ± 0.6 µM.

`C#CCOc1cccc(NS(=O)(=O)c2ccc(O)c3ncccc23)c1` [3e, 8-Hydroxy-N-[3-(prop-2-yn-1-yloxy)phenyl]quinoline-5-sulfonamide] was tested. Which IC50 did it give?
The IC50 was 11.5 ± 0.7 µM.
